Like-named read-outs stand apart in the source and are kept apart here.
How the values were obtained:
HEPG2 = test: TC50 assay with human cancer cell lines, 96 h: HEPG2; assay type: cell-based
Procedure: (§6) Huh7 cells were maintained at 37° C. in a humidified atmosphere at 5% CO2 in DMEM containing 10% FBS. […] The cells were then treated with each compound at concentrations ranging from 500 μM to 0 μM in triplicate in DMEM media containing 2% FBS and 0.5% DMSO and without phenol red. After 48 h of treatment at 37° C., the relative number of living cells in each well was determined by using the CellTiter 96 system (Promega) according to the manufacturer's instructions. The 3-(4,5-dimethylthiazol-2-yl)-5-(3-carboxymethoxyphenyl)-2-(4-sulfophenyl)-2H-tetrazolium (MTS) and phenazine methosulfate (PMS) reagents were added to each well of the 96-well plate and the plate was incubated at 37° C. for approximately 2 h. The absorbance at 490 nm and 650 nm in each well was then determined by using a Flexstation 3 microplate reader (Molecular Dynamics). The absorbance determined at 650 nm was then subtracted from the absorbance determined at 490 nm to correct for light scattering. The corrected absorbance values representing the relative number of live cells in each condition were then plotted as a function of compound concentration, and the data were then fit to the following sigmoidal Emax equation by using Kaleidagraph: y=(Emax*x^Slope)/(TC50^Slope+x^Slope) where y is the relative corrected absorbance value, Emax is the maximum relative inhibition, x is the compound concentration, TC50 is the concentration of the compound at which the total cell population is reduced by 50%, and Slope is the slope of the curve.
(§7) Huh7, HEPG2, HEK293, MCF-7 and BxPC3 cell lines were maintained at 37° C. in a humidified atmosphere at 5% CO2 in DMEM containing 10% FBS. […] The cells were then treated with each compound at concentrations ranging from 500 μM to 0 μM in triplicate in DMEM media containing 2% FBS and 0.5% DMSO and without phenol red.

MCF-7 = test: TC50 assay with human cancer cell lines, 96 h: MCF-7; assay type: cell-based
Procedure: as §6, §7

RPK9 cells = test: TC50 assay in gemcitabine resistant (dCK deficient) RPK9 cells, 48 h; conditions: read-out: TC50 (μM) in RPK9 cells at 48 hr
Procedure: (§1) Huh7 cells were maintained at 37° C. in a humidified atmosphere at 5% CO2 in DMEM containing 10% FBS. […] The cells were then treated with each compound at concentrations ranging from 500 μM to 0 μM in triplicate in DMEM media containing 2% FBS and 0.5% DMSO and without phenol red. After 48 h of treatment at 37° C., the relative number of living cells in each well was determined by using the CellTiter 96 system (Promega) according to the manufacturer's instructions. The 3-(4,5-dimethylthiazol-2-yl)-5-(3-carboxymethoxyphenyl)-2-(4-sulfophenyl)-2H-tetrazolium (MTS) and phenazine methosulfate (PMS) reagents were added to each well of the 96-well plate and the plate was incubated at 37° C. for approximately 2 h. The absorbance at 490 nm and 650 nm in each well was then determined by using a Flexstation 3 microplate reader ([…]). The absorbance determined at 650 nm was then subtracted from the absorbance determined at 490 nm to correct for light scattering. The corrected absorbance values representing the relative number of live cells in each condition were then plotted as a function of compound concentration, and the data were then fit to the following sigmoidal Emax equation by using Kaleidagraph: y=(Emax*x^Slope)/(TC50^Slope+x^Slope) where y is the relative corrected absorbance value, Emax is the maximum relative inhibition, x is the compound concentration, TC50 is the concentration of the compound at which the total cell population is reduced by 50%, and Slope is the slope of the curve.
(§2) PK9 and RPK9 cells were maintained at 37° C. in a humidified atmosphere at 5% CO2 in Roswell Park Memorial Institute (RPMI) media containing 10% FBS. […] The cells were then treated with each compound at concentrations ranging from […] to 0 μM in triplicate in RPMI media containing 2% FBS and 0.5% DMSO and without phenol red. […] The RPK9 cells were derived from the parental PK9 cell line, and are deficient for dCK activity due to the partial deletion of the dCK gene.

PK9 cells [1] = test: TC50 assay in PK9 cells, 48 h; conditions: Homo sapiens, PK9, 48 h, read-out: TC50 (μM) in PK9 cells at 48 hr
Procedure: as §1, §2

BxPC3 = test: TC50 assay with human cancer cell lines, 96 h: BxPC3; assay type: cell-based
Procedure: as §6, §7

[2] = TC50 assay in Huh7 cells, 48 h (CellTiter 96); conditions: human
Procedure: as §1
(§3) The data in Table 1 were determined for cells exposed to drug for 48 h. The IC50 is the concentration of each compound necessary to inhibit the replication of the HCV luciferase replicon to 50%. “TC50,” refers to toxic concentration necessary to reduce the cell population by 50%. All compounds were purified by HPLC.

Huh7 = test: TC50 assay with human cancer cell lines, 96 h: Huh7; assay type: cell-based
Procedure: as §6, §7

HCV luciferase replicon = test: IC50 assay: inhibition of the HCV luciferase replicon in Huh7 cells; assay type: cell-based; conditions: for IC50: Hepatitis C virus; for Therapeutic Index (TC50/IC50): TC50 in Huh7 / IC50 HCV replicon, 48 h
Procedure: After 48 h of treatment at 37° C., the media in each well was removed, the cells were gently washed once with phosphate buffered saline (PBS) and subsequently lysed by the addition of Glo Lysis Buffer (Promega). After a 15 min incubation at room temperature to allow for complete cell lysis, Bright-Glo luciferase reagent (Promega) was added to each well and the relative luciferase activity in each well was determined by using a Glowmax 96 microplate luminometer (Promega).
IC50 values determined using the above methods for inhibition of the HCV luciferase replicon in Huh7 cells are set forth in Table 1.
All compounds were purified by HPLC.

HEK293 = test: TC50 assay with human cancer cell lines, 96 h: HEK293; assay type: cell-based
Procedure: as §6, §7

PK9 cells [3] = test: Cell transport: cytotoxicity in PK9 cells with or without ENT1 inhibitor NBTI; conditions: Homo sapiens, PK9, 48 h
Procedure: as §1
(§4) To this end, Huh7 cells or PK9 cells were seeded in 96-well plates at a density of 5,000 cells/well or 2,500 cells/well, respectively, and the plates were incubated at 37° C. for 24 h to allow for cell attachment. The media was then removed from the plates and replaced with media containing 2% FBS, 0.5% DMSO and 10 μM NBTI. […] Subsequently, the cells were treated with each compound at final concentrations ranging from 500 μM to 0 μM in triplicate in media containing 2% FBS, 0.5% DMSO and 10 μM NBTI. […] The TC50 values of each compound in the presence or absence of the ENT1 inhibitor were then compared.

Huh7 cells [4] = test: Cell transport: cytotoxicity in Huh7 cells with or without ENT1 inhibitor NBTI; conditions: Homo sapiens, Huh-7, 48 h
Procedure: as §1, §4

genotype 1a HCV = test: Oral administration to HCV-infected chimpanzees, viral load (genotype 1a); assay type: in vivo, chimpanzee; conditions: Chimpanzee III
Procedure: (§5) Via oral gavage, two HCV-infected chimpanzees I (male, 56.49 kg and 11 years old; genotype 1b HCV) and II (male, 61.91 kg and 34 years old; genotype 1a HCV) each received a single dosage of 200 mg of Compound 1 in Formulation I while the HCV-infected chimpanzee III (male, 56.19 kg and 18 years old; genotype 1a HCV) was administered a single dosage of 260 mg of the non-phosphorylated analog of Compound 1 (Table 1) in Formulation I. After 12 hours, the HCV viral titer decreased from 24,100 to 10,200 IU/ml (or 58% drop) in Chimpanzee I, from 38,500 to 27,000 IU/ml (or 30% drop) in Chimpanzee II, and from 154,000 to 142,000 IU/ml (or 8% drop) in Chimpanzee III. […] All animals were fasted overnight prior to dosing and a minimum of 2 hours prior to scheduled blood sample collections. Viral load determinations were performed on plasma samples using the HCV TaqMan assay (COBAS® AmpliPrep/COBAS® TaqMan® HCV Test, Version 2, Test Code 1220) for quantitative analysis. […] There were no adverse effects, illness, nor distress seen with the three chimpanzees during the study requiring veterinarian intervention.

[5] = Tolerability of single oral dosage in HCV-infected chimpanzees; assay type: in vivo, chimpanzee; conditions: single oral dosage 260 mg
Procedure: as §5

Huh7 cells [6] = test: TC50 assay in Huh7 cells, 48 h (CellTiter 96); conditions: read-out: TC50; Huh7 cells, 48 h exposure
Procedure: as §1, §3

[7] = HepG2, 96 h of treatment, read-out: TC50 HEPG2
[8] = MCF7, 96 h of treatment, read-out: TC50 MCF-7
[9] = BXPC-3, 96 h of treatment, read-out: TC50 BxPC3
[10] = Huh-7, 96 h of treatment, read-out: TC50 Huh7
[11] = Huh-7, Huh7 cells containing HCV luciferase replicon, 48 h exposure, read-out: IC50
[12] = HEK293, 96 h of treatment, read-out: TC50 HEK293
[13] = read-out: TC50 (μM) in PK9 cells at 48 h Without NBTI

| Compound | CC50 (RPK9 cells) [µM] | CC50 (PK9 cells [1]) [µM] | Therapeutic Index (TC50/IC50) (HCV luciferase replicon) | CC50 (HEPG2; [7]) [µM] | CC50 (MCF-7; [8]) [µM] | CC50 (BxPC3; [9]) [µM] | CC50 (Huh7; [10]) [µM] | IC50 (HCV luciferase replicon; [11]) [µM] | CC50 (HEK293; [12]) [µM] | CC50 (PK9 cells [3]; [13]) [µM] | other results |
| --- | --- | --- | --- | --- | --- | --- | --- | --- | --- | --- | --- |
| CC(C)OC(=O)[C@H](C)N[P@](=O)(OC[C@H]1O[C@@H](n2ccc(NC(=O)c3ccc4c(c3)OCO4)nc2=O)C(F)(F)C1O)Oc1ccccc1 (stereo in doubt) [Compound 4] | 20.3 ± 3.9 | 16 ± 4.8 | 134 |  |  |  |  |  |  |  | CC50 (HEPG2; HepG2, 96 h, read-out: TC50 HEPG2 (μM)): 3.22 µM; CC50 (MCF-7; MCF7, 96 h, read-out: TC50 MCF-7 (μM)): 1.93 µM; CC50 (BxPC3; BXPC-3, 96 h, read-out: TC50 BxPC3 (μM)): 4.05 µM; CC50 at 48 h [2]: 41.5 ± 5.6 µM; CC50 (Huh7; Huh-7, 96 h, read-out: TC50 Huh7 (μM)): 5.5 µM; IC50 (HCV luciferase replicon; Huh-7, 48 h): 0.309 ± 0.045 µM; CC50 (HEK293; HEK293, 96 h, read-out: TC50 HEK293 (μM)): 2.7 µM |
| Nc1ccn([C@@H]2O[C@H](CO)[C@@H](O)C2(F)F)c(=O)n1 [Gemcitabine, 2′,2′-difluorodeoxycytidine, reference compound] | > 500 | 0.095 ± 0.035 |  | 0.311 ± 0.055 | 0.067 ± 0.014 | 0.0029 ± 0.003 | 3.41 ± 1.36 | 0.058 ± 0.006 | 0.56 ± 0.13 | 0.095 |  |
| CCCC(CCC)C(=O)Nc1ccn(C2O[C@H](CO)[C@@H](O)C2(F)F)c(=O)n1 (stereo partly shown) [Non-phosphorylated analog of Compound 1] | > 500 | 1.27 ± 0.09 | 850 | 4.32 ± 0.34 | 9.06 ± 1.95 | 1.02 ± 0.15 | 3.89 ± 0.68 | 0.451 ± 0.079 | 15.1 ± 1.77 | 1.27 | CC50 (Huh7 cells [4]; read-out: TC50 (μM) in Huh7 cells at 48 h With NBTI): 260 µM; CC50 (Huh7 cells [4]; read-out: TC50 (μM) in Huh7 cells at 48 h Without NBTI): 383 µM; CC50 at 48 h ([2]; Huh7 cells): 383 ± 51 µM; drop of HCV viral titer after 12 hours (genotype 1a HCV; single oral dosage 260 mg): 8%; HCV viral titer after 12 hours (genotype 1a HCV; single oral dosage 260 mg in Formulation I, titer before 154,000 IU/ml): 142,000 IU/ml; tolerability [5]: well tolerated; CC50 (PK9 cells [3]; read-out: TC50 (μM) in PK9 cells at 48 h With NBTI): 6.6 µM |
| COc1cc(C(=O)Nc2ccn([C@@H]3O[C@H](CO)[C@@H](O)C3(F)F)c(=O)n2)cc(OC)c1OC [Non-phosphorylated analog of Compound 3, N-(1-((2R,4R,5R)-3,3-difluoro-4-hydroxy-5-(hydroxymethyl)tetrahydrofuran-2-yl)-2-oxo-1,2-dihydropyrimidin-4-yl)-3,4,5-trimethoxybenzamide] | > 500 | 1.69 ± 0.1 | 10040 | 1.67 | 0.566 | 1.83 | 5.05 | 0.0493 ± 0.0088 | 1.28 |  | CC50 (Huh7 cells [6]): 495 ± 97 µM |
